Test results reported in patent US20210122757A1, “SPIROCYCLIC COMPOUNDS AS MODULATORS OF INDOLEAMINE 2,3-DIOXYGENASE” (PHENEX DISCOVERY VERWALTUNGS-GMBH, priority 2018, published 2021).

target: T1, Indoleamine 2,3-dioxygenase (Homo sapiens, UniProt P14902); assay: SKOV-3 Cellular Indoleamine 2,3-dioxygenase Assay; settings: SKOV-3 cells, 50 ng/ml Interferon gamma, 100 μM L-Tryptophan, 24 hours, N-Formylkynurenin fluorescence detection; read-out: cell based activity (IC50)
T1 construct: endogenous in cells; host or cells: SKOV-3 (ATCC HTB-77), stimulated with 50 ng/ml interferon gamma
T1 sequence (P14902 whole entry): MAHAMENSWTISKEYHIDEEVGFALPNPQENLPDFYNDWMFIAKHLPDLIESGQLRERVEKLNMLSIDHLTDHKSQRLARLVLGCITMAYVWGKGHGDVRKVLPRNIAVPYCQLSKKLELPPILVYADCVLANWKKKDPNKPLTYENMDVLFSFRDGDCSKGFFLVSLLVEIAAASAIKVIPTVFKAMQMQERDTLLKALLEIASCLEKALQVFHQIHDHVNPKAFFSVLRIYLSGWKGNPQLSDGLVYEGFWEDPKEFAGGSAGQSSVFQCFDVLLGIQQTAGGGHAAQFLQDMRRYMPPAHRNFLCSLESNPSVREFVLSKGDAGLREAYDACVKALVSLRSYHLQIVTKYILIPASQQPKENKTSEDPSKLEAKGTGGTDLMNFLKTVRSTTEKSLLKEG
Protocol: SKOV-3 Cellular Indoleamine 2,3-dioxygenase Assay
SKOV-3 cells were obtained from the American Type Culture Collection (ATCC® HTB-77™) and maintained in McCoy's medium (Pan Biotech) supplemented with 10% fetal bovine serum and 1% Penicillin/Streptomycin. Cells were kept at 37° C. in a humidified incubator with 5% CO2. For assay preparation, cells were seeded at a density of 2*10^5/ml into black clear bottom 96 well plates in 100 μl medium/well supplemented with 50 ng/ml Interferon gamma (eBioscience, Thermo Fisher Scientific). After cells fully adhered to the plate, dilution series of compounds were added in medium containing additional L-Tryptophan to a final L-Tryptophan concentration of 100 μM. The cells were incubated for 24 hours. Detection of produced N-Formylkynurenin was performed by addition of 3-Methylpiperidine to a final concentration of 200 mM. The plates were sealed and heated to 65° C. for 20 minutes in a water bath. After cooling the fluorescence of each well was recorded with a Victor™X4 (PerkinElmer) plate reader at an emission wavelength of 535 nm and excitation at 405 nm (Tomek et al.; Anal Bioanal Chem (2013) 405:2515-2524, Tomek et al.; Biochim Biophys Acta. 2015 September; 1850(9):1772-80).

| IC50 [nM] | Compound |
| --- | --- |
| ≥ 50 | O=C(C[C@H]1CC[C@@]2(CCc3ccccc32)CC1)Nc1ccc(Cl)cc1 (single isomer, unassigned) [Example 1b, N-(4-chlorophenyl)-2-(2′,3′-dihydrospiro[cyclohexane-1,1′-inden]-4-yl)acetamide] |
| < 50 | O=C(C[C@H]1CC[C@@]2(CCc3ccccc32)CC1)Nc1ccc(Cl)cc1 (single isomer, unassigned) [Example 1c, N-(4-chlorophenyl)-2-(2′,3′-dihydrospiro[cyclohexane-1,1′-inden]-4-yl)acetamide] |
| < 50 | CC(C(=O)Nc1ccc(Cl)cc1)[C@H]1CC[C@@]2(CCc3ccccc32)CC1 (single isomer, unassigned) [Example 2a, N-(4-chlorophenyl)-2-(2′,3′-dihydrospiro[cyclohexane-1,1′-inden]-4-yl)propanamide] |
| < 50 | CC(C(=O)Nc1ccc(Cl)cc1)[C@H]1CC[C@@]2(CCc3ccccc32)CC1 (single isomer, unassigned) [Example 2b, N-(4-chlorophenyl)-2-(2′,3′-dihydrospiro[cyclohexane-1,1′-inden]-4-yl)propanamide] |
| ≥ 50 | CC(C(=O)Nc1ccc(Cl)cc1)C1CCC2(CC1)COc1ncc(C(F)(F)F)cc12 (single isomer, unassigned) [Example 4b, N-(4-chlorophenyl)-2-(5′-(trifluoromethyl)-2′H-spiro[cyclohexane-1,3′-furo[2,3-b]pyridin]-4-yl)propanamide] |
| ≥ 50 | CC(C(=O)Nc1ccc(Cl)cc1)C1CCC2(CC1)COc1ncc(C(F)(F)F)cc12 (single isomer, unassigned) [Example 4c, N-(4-chlorophenyl)-2-(5′-(trifluoromethyl)-2′H-spiro[cyclohexane-1,3′-furo[2,3-b]pyridin]-4-yl)propanamide] |
| ≥ 50 | CC(C(=O)Nc1ccc(Cl)cc1)C1CCC2(CC1)COc1ncc(C(F)(F)F)cc12 (single isomer, unassigned) [Example 4d, N-(4-chlorophenyl)-2-(5′-(trifluoromethyl)-2′H-spiro[cyclohexane-1,3′-furo[2,3-b]pyridin]-4-yl)propanamide] |
| < 50 | CC(C(=O)Nc1ccc(Cl)cc1)C1CCC2(CC1)COc1ncc(C(F)(F)F)cc12 (single isomer, unassigned) [Example 4e, N-(4-chlorophenyl)-2-(5′-(trifluoromethyl)-2′H-spiro[cyclohexane-1,3′-furo[2,3-b]pyridin]-4-yl)propanamide] |
| < 50 | CC(C(=O)Nc1ccc(Cl)cc1)C1CCC2(CC1)COc1nc(C(F)(F)F)ccc12 (single isomer, unassigned) [Example 5b, N-(4-chlorophenyl)-2-(6′-(trifluoromethyl)-2′H-spiro[cyclohexane-1,3′-furo[2,3-b]pyridin]-4-yl)propanamide] |
| < 50 | CC(C(=O)Nc1ccc(Cl)cc1)C1CCC2(CC1)COc1nc(C(F)(F)F)ccc12 (single isomer, unassigned) [Example 5c, N-(4-chlorophenyl)-2-(6′-(trifluoromethyl)-2′H-spiro[cyclohexane-1,3′-furo[2,3-b]pyridin]-4-yl)propanamide] |
| ≥ 50 | CC(C(=O)Nc1ccc(Cl)cc1)C1CCC2(CC1)COc1nc(C(F)(F)F)ccc12 (single isomer, unassigned) [Example 5d, N-(4-chlorophenyl)-2-(6′-(trifluoromethyl)-2′H-spiro[cyclohexane-1,3′-furo[2,3-b]pyridin]-4-yl)propanamide] |
| < 50 | CC(C(=O)Nc1ccc(Cl)cc1)C1CCC2(CC1)COc1nc(C(F)(F)F)ccc12 (single isomer, unassigned) [Example 5e, N-(4-chlorophenyl)-2-(6′-(trifluoromethyl)-2′H-spiro[cyclohexane-1,3′-furo[2,3-b]pyridin]-4-yl)propanamide] |
| ≥ 50 | CC(C(=O)Nc1ccc(Cl)cc1)C1CCC2(CC1)c1ccc(C(F)(F)F)cc1C(=O)N2C (single isomer, unassigned) [Example 6b, N-(4-Chlorophenyl)-2-(2′-methyl-3′-oxo-5′-(trifluoromethyl)spiro[cyclohexane-1,1′-isoindolin]-4-yl)propanamide] |
| < 50 | CC(C(=O)Nc1ccc(Cl)cc1)C1CCC2(CC1)c1ccc(C(F)(F)F)cc1C(=O)N2C (single isomer, unassigned) [Example 6c, N-(4-Chlorophenyl)-2-(2′-methyl-3′-oxo-5′-(trifluoromethyl)spiro[cyclohexane-1,1′-isoindolin]-4-yl)propanamide] |
| ≥ 50 | CC(C(=O)Nc1ccc(Cl)cc1)C1CCC2(CC1)c1ccc(C(F)(F)F)cc1C(=O)N2C (single isomer, unassigned) [Example 6d, N-(4-Chlorophenyl)-2-(2′-methyl-3′-oxo-5′-(trifluoromethyl)spiro[cyclohexane-1,1′-isoindolin]-4-yl)propanamide] |
| ≥ 50 | CC(C(=O)Nc1ccc(Cl)cc1)C1CCC2(CC1)c1ccc(C(F)(F)F)cc1C(=O)N2C (single isomer, unassigned) [Example 6e, N-(4-Chlorophenyl)-2-(2′-methyl-3′-oxo-5′-(trifluoromethyl)spiro[cyclohexane-1,1′-isoindolin]-4-yl)propanamide] |
| < 50 | CC(C(=O)Nc1ccc(Cl)cc1F)C1CCC2(CC1)COc1cc(C(F)(F)F)ccc12 (single isomer, unassigned) [Example 7b, N-(4-Chloro-2-fluorophenyl)-2-(6-(trifluoromethyl)-2H-spiro[benzofuran-3,1′-cyclohexan]-4′-yl)propanamide] |
| < 50 | CC(C(=O)Nc1ccc(Cl)cc1F)C1CCC2(CC1)COc1cc(C(F)(F)F)ccc12 (single isomer, unassigned) [Example 7c, N-(4-Chloro-2-fluorophenyl)-2-(6-(trifluoromethyl)-2H-spiro[benzofuran-3,1′-cyclohexan]-4′-yl)propanamide] |
| < 50 | CC(C(=O)Nc1ccc(Cl)cc1F)C1CCC2(CC1)COc1cc(C(F)(F)F)ccc12 (single isomer, unassigned) [Example 7d, N-(4-Chloro-2-fluorophenyl)-2-(6-(trifluoromethyl)-2H-spiro[benzofuran-3,1′-cyclohexan]-4′-yl)propanamide] |
| ≥ 50 | CC(C(=O)Nc1ccc(Cl)cc1F)C1CCC2(CC1)COc1cc(C(F)(F)F)ccc12 (single isomer, unassigned) [Example 7e, N-(4-Chloro-2-fluorophenyl)-2-(6-(trifluoromethyl)-2H-spiro[benzofuran-3,1′-cyclohexan]-4′-yl)propanamide] |
| < 50 | Cc1ccc(NC(=O)C(C)C2CCC3(CC2)COc2cc(C(F)(F)F)ccc23)cc1 (single isomer, unassigned) [Example 8b, N-(p-Tolyl)-2-(6-(trifluoromethyl)-2H-spiro[benzofuran-3,1′-cyclohexan]-4′-yl)propanamide] |
| < 50 | Cc1ccc(NC(=O)C(C)C2CCC3(CC2)COc2cc(C(F)(F)F)ccc23)cc1 (single isomer, unassigned) [Example 8c, N-(p-Tolyl)-2-(6-(trifluoromethyl)-2H-spiro[benzofuran-3,1′-cyclohexan]-4′-yl)propanamide] |
| < 50 | Cc1ccc(NC(=O)C(C)C2CCC3(CC2)COc2cc(C(F)(F)F)ccc23)cc1 (single isomer, unassigned) [Example 8d, N-(p-Tolyl)-2-(6-(trifluoromethyl)-2H-spiro[benzofuran-3,1′-cyclohexan]-4′-yl)propanamide] |
